{"source": "paper PMC4022547", "about": "(Molecular Brain, 2014)", "key": {"[1]": {"biological_target": "hα6(D199Y) + codon optimized hβ2 + hβ3^V9’S nAChR (Homo sapiens, UniProt P17787+Q15825, D199Y)", "details": "100 μM nicotine; oocytes clamped at −70 mV", "experimental": "(§1) We planned to introduce identical amounts of cRNA, presumably producing equal amounts of each subunit protein, into oocytes largely due to lack of information about the levels of mRNA for each subunits that compose α6*-nAChRs in neurons or other cells. Concentrations of cRNAs for each nAChR α and β subunits (WT, mutant or variant) were adjusted to 500 ng μL^−1. We provisionally assumed that hα6 or its variants in association with hβ2 or hβ4 subunits would form complexes having 2:3 and/or 3:2 ratios of the indicated subunits and that oocytes also injected with WT or mutant form of β3 subunits (i.e., β3^V9’S) would express nAChR with 2:2:1 ratios of α:β:(β3 or β3^V9’S) subunits. For expression of binary nAChRs (i.e., two subunit containing nAChRs; α + β but not β3) cRNA mixtures were prepared by mixing 1 μL of cRNA for each subunit and an additional μL of RNAse free water (i.e., total volume 3 μL). Similarly for expression of ternary nAChRs [i.e., three subunit containing nAChRs; (α + β) + (β3 or β3^V9’S)] cRNA mixtures were prepared by mixing 1 μL of cRNA for each subunit. Several preparations of each mixture were prepared and stored at −80°C until further use. Injection of 138 nL of cRNA, out of 3 μL cRNA mixtures, into each oocyte would deliver ~23 ng of cRNA for each subunit whether binary or ternary nAChRs are expressed.\n(§2) Two to 5 days after injection, oocytes were placed in a small-volume chamber and continuously perfused with OR2. The chamber was grounded through an agarose bridge. The oocytes were voltage-clamped at −70 mV (unless otherwise noted) to measure agonist or antagonist induced currents using Axoclamp 900A and pClamp 10.2 software (Molecular Devices, Sunnyvale, CA). The current signal was low-pass filtered at 10 Hz with the built-in low-pass Bessel filter in the Axoclamp 900A and digitized at 20 Hz with Axon Digidata1440A and pClamp10. […] Drugs (agonists and antagonists) were prepared daily in OR2. Drug was applied using a Valvelink 8.2 perfusion system (Automate scientific, Berkeley, CA). […] Then for the purpose of comparison electrophysiological recordings were performed in a given day in a given batch of oocytes following the same order of injections. […] All hβ4*-nAChR recordings were done in similar conditions to facilitate comparisons between hα6hβ4- and hα6hβ4hβ3-nAChRs. All electrophysiological measurements were conducted or checked in at least two batches of oocytes.\n(§3) Raw data was collected and processed in part using pClamp 10.2 (Molecular Devices, Sunnyvale, CA), Origin 7.5 (OriginLab Corporation, Northampton, MA) and a spreadsheet (Excel; Microsoft, Bellevue, WA). Peak current amplitudes (Imax) are reported as mean ± SEM (for results from at least three oocytes, i.e., n = 3)."}, "[2]": {"biological_target": "hα6(S43P) + hβ4 + hβ3 nAChR (Homo sapiens, UniProt P30926+Q15825, S43P)", "details": "100 μM nicotine; oocytes clamped at −70 mV", "experimental": "as §1, §2, §3"}, "[3]": {"biological_target": "hα6(S233C) + codon optimized hβ2 + hβ3^V9’S nAChR (Homo sapiens, UniProt P17787+Q15825, S233C)", "details": "100 μM nicotine; oocytes clamped at −70 mV", "experimental": "as §1, §2, §3"}, "[4]": {"biological_target": "hα6(E101K) + codon optimized hβ2 + hβ3^V9’S nAChR (Homo sapiens, UniProt P17787+Q15825, E101K)", "details": "100 μM nicotine; oocytes clamped at −70 mV", "experimental": "as §1, §2, §3"}, "[5]": {"biological_target": "hα6(A112V) + codon optimized hβ2 + hβ3^V9’S nAChR (Homo sapiens, UniProt P17787+Q15825, A112V)", "details": "100 μM nicotine; oocytes clamped at −70 mV", "experimental": "as §1, §2, §3"}, "[6]": {"biological_target": "hα6(S156R) + WT hβ2 + hβ3^V9’S nAChR (Homo sapiens, UniProt P17787+Q15825, S156R)", "details": "nicotine", "experimental": "as §1, §2, §3"}, "[7]": {"biological_target": "hα6(N203T) + WT hβ2 + hβ3^V9’S nAChR (Homo sapiens, UniProt P17787+Q15825, N203T)", "sequence (Q15825 26-494 N203T)": "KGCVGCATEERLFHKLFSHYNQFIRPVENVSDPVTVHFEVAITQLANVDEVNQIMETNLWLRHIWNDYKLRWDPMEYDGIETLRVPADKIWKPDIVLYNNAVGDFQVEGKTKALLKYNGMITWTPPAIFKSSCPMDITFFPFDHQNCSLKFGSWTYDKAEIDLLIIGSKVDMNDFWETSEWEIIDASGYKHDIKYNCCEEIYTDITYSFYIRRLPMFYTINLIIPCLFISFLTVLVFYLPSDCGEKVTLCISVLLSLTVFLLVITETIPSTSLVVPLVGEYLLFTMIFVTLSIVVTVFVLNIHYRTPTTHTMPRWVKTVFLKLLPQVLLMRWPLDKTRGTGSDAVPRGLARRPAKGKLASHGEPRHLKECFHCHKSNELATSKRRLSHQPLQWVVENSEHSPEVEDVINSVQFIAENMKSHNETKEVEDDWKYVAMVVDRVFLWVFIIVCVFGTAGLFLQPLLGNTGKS", "sequence (P17787 26-502)": "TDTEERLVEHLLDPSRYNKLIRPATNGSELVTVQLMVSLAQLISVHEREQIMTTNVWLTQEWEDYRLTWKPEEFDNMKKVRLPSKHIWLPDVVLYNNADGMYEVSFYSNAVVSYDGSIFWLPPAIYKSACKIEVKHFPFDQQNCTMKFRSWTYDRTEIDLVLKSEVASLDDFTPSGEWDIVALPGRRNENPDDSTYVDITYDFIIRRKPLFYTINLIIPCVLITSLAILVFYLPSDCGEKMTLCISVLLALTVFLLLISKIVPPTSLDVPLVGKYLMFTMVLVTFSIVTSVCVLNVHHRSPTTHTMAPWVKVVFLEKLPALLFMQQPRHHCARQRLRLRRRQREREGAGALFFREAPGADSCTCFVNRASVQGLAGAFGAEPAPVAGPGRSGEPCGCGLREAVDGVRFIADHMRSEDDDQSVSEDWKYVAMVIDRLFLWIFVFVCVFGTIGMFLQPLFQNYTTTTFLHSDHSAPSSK", "sequence (Q05901 25-458 V273S partner limits assumed)": "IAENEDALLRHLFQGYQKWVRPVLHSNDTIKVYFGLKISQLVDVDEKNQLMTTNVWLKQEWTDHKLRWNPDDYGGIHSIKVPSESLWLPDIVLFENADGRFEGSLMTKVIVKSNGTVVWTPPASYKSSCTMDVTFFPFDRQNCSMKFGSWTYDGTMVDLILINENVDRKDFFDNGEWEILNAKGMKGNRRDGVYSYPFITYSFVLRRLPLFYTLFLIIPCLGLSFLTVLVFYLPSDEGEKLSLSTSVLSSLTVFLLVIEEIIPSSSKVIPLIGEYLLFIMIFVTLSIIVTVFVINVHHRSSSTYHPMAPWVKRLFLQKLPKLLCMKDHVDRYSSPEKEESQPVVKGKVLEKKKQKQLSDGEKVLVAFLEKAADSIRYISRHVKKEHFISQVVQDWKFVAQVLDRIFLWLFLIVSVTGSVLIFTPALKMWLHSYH", "details": "100 μM nicotine", "experimental": "as §1, §2, §3"}, "hα6(A112V) + hβ4 nAChR": {"biological_target": "hα6(A112V) + hβ4 nAChR (Homo sapiens, UniProt P30926+Q15825, A112V)", "sequence (Q15825 26-494 A112V)": "as the sequence (Q15825 26-494 N203T) above, with A87V, T178N counted along it", "sequence (P30926 22-498)": "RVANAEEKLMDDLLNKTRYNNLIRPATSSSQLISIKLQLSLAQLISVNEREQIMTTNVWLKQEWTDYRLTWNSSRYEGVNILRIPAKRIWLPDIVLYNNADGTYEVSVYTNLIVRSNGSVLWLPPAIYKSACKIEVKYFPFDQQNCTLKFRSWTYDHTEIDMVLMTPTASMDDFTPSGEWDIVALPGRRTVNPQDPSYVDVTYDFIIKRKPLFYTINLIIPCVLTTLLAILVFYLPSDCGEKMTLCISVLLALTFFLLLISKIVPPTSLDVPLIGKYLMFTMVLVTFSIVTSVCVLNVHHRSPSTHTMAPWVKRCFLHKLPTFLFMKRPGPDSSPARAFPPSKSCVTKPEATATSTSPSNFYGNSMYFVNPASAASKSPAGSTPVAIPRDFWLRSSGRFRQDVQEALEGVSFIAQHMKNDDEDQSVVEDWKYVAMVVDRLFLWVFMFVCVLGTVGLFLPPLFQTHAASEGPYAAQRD", "details": "100 μM nicotine; oocytes clamped at −70 mV", "experimental": "as §1, §2, §3"}, "[8]": {"biological_target": "hα6(D92E) + codon optimized hβ2 + hβ3^V9’S nAChR (Homo sapiens, UniProt P17787+Q15825, D92E)", "details": "100 μM nicotine; oocytes clamped at −70 mV", "experimental": "as §1, §2, §3"}, "[9]": {"biological_target": "hα6(N46K) + hβ4 + hβ3 nAChR (Homo sapiens, UniProt P30926+Q15825, N46K)", "details": "100 μM nicotine; oocytes clamped at −70 mV", "experimental": "as §1, §2, §3"}, "[10]": {"system": "hα6(S233C) + WT hβ2 + hβ3^V9’S nAChR", "details": "100 μM nicotine; higher, p < 0.05", "experimental": "as §1, §2, §3"}, "[11]": {"biological_target": "hα6(A184D) + WT hβ2 + hβ3^V9’S nAChR (Homo sapiens, UniProt P17787+Q15825, A184D)", "details": "100 μM nicotine; 3 days after cRNA injection", "experimental": "as §1, §2, §3"}, "[12]": {"biological_target": "hα6(I226T) + WT hβ2 + hβ3^V9’S nAChR (Homo sapiens, UniProt P17787+Q15825, I226T)", "sequence (Q15825 26-494 I226T)": "as the sequence (Q15825 26-494 N203T) above, with T178N, I201T counted along it", "sequence (P17787 26-502)": "as the sequence (P17787 26-502) above", "sequence (Q05901 25-458 V273S partner limits assumed)": "as the sequence (Q05901 25-458 V273S partner limits assumed) above", "details": "100 μM nicotine", "experimental": "as §1, §2, §3"}, "[13]": {"biological_target": "hα6(I226T) + hβ4 + hβ3 nAChR (Homo sapiens, UniProt P30926+Q15825, I226T)", "details": "100 μM nicotine; oocytes clamped at −70 mV", "experimental": "as §1, §2, §3"}, "[14]": {"biological_target": "hα6(A112V) + hβ4 + hβ3 nAChR (Homo sapiens, UniProt P30926+Q15825, A112V)", "details": "100 μM nicotine; oocytes clamped at −70 mV", "experimental": "as §1, §2, §3"}}}
{"smiles": "CN1CCC[C@H]1c1cccnc1", "note": "[nicotine, L-nicotine]", "values": [{"measurement": "peak current (Imax, mean ± SE)", "setting": "[1]", "result": "2076 ± 68", "unit": "nA"}, {"measurement": "Mean (±SE) peak current response", "setting": "[2]", "result": "208 ± 22", "unit": "nA"}, {"measurement": "peak current (Imax, mean ± SE)", "setting": "[3]", "result": "1582 ± 221", "unit": "nA"}, {"measurement": "peak current (Imax, mean ± SE)", "setting": "[4]", "result": "551 ± 156", "unit": "nA"}, {"measurement": "peak current (Imax, mean ± SE)", "setting": "[5]", "result": "293 ± 24", "unit": "nA"}, {"measurement": "current response", "setting": "[6]", "result": "did not yield current responses"}, {"measurement": "peak current response", "setting": "[7]; 3 days after cRNA injection", "result": "15-30 nA"}, {"measurement": "Mean (±SEM) current response", "setting": "[7]; 5 days after injection", "result": "53 ± 12", "unit": "nA"}, {"measurement": "peak current (Imax, mean ± SE)", "setting": "hα6(A112V) + hβ4 nAChR", "result": "110 ± 22", "unit": "nA"}, {"measurement": "peak current (Imax, mean ± SE)", "setting": "[8]", "result": "66 ± 20", "unit": "nA"}, {"measurement": "Mean (±SE) peak current response", "setting": "[9]", "result": "307 ± 39", "unit": "nA"}, {"measurement": "peak current response relative to hα6hβ2hβ3^V9’S-nAChRs", "setting": "[10]", "result": "2-5 fold"}, {"measurement": "peak current response", "setting": "[11]", "result": "15-30 nA"}, {"measurement": "peak current response", "setting": "[12]; 3 days after cRNA injection", "result": "15-30 nA"}, {"measurement": "Mean (±SEM) current response", "setting": "[12]; 5 days after injection", "result": "123 ± 40", "unit": "nA"}, {"measurement": "Mean (±SE) peak current response", "setting": "[13]", "result": "403 ± 79", "unit": "nA"}, {"measurement": "Mean (±SE) peak current response", "setting": "[14]", "result": "482 ± 59", "unit": "nA"}]}
